Measured values as given in PubChem BioAssay (NCI).
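Five concentrations, 48 hours, 96-well plates. TGI is the concentration that stops growth completely.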

Columns and labels:
Test in all cases: NCI-60 cell line screen, 48 h
UACC-62 melanoma = test system: UACC-62 melanoma
MDA-N = test system: MDA-N
SK-MEL-2 melanoma = test system: SK-MEL-2 melanoma
UO-31 renal = test system: UO-31 renal
NCI-H522 lung = test system: NCI-H522 lung
PC-3 prostate = test system: PC-3 prostate
OVCAR-8 ovarian = test system: OVCAR-8 ovarian
NCI-H460 lung = test system: NCI-H460 lung
MDA-MB-231 breast = test system: MDA-MB-231 breast
HT29 colon = test system: HT29 colon
HOP-62 NSCLC = test system: HOP-62 NSCLC
A549 NSCLC = test system: A549 NSCLC
HCC-2998 colon = test system: HCC-2998 colon
SNB-75 CNS = test system: SNB-75 CNS
KM12 colon = test system: KM12 colon
CCRF-CEM leukemia = test system: CCRF-CEM leukemia
IGROV1 ovarian = test system: IGROV1 ovarian
SF-539 CNS = test system: SF-539 CNS
HCT-15 colon = test system: HCT-15 colon
COLO 205 colon = test system: COLO 205 colon
SK-OV-3 ovarian = test system: SK-OV-3 ovarian
MCF7 breast = test system: MCF7 breast
HCT-116 colon = test system: HCT-116 colon
SR leukemia = test system: SR leukemia
NCI/ADR-RES ovarian = test system: NCI/ADR-RES ovarian
EKVX NSCLC = test system: EKVX NSCLC
SF-268 CNS = test system: SF-268 CNS
MALME-3M melanoma = test system: MALME-3M melanoma
K-562 leukemia = test system: K-562 leukemia
T-47D breast = test system: T-47D breast
CAKI-1 renal = test system: CAKI-1 renal
SF-295 CNS = test system: SF-295 CNS
SK-MEL-28 melanoma = test system: SK-MEL-28 melanoma
SNB-19 CNS = test system: SNB-19 CNS
SN12C renal = test system: SN12C renal
NCI-H226 lung = test system: NCI-H226 lung
HS 578T breast = test system: HS 578T breast
RXF 393 renal = test system: RXF 393 renal
BT-549 breast = test system: BT-549 breast
A498 renal = test system: A498 renal
NCI-H23 lung = test system: NCI-H23 lung
DU-145 prostate = test system: DU-145 prostate
U251 CNS = test system: U251 CNS
MOLT-4 leukemia = test system: MOLT-4 leukemia
OVCAR-3 ovarian = test system: OVCAR-3 ovarian
HL-60(TB) leukemia = test system: HL-60(TB) leukemia
MDA-MB-435 = test system: MDA-MB-435
ACHN renal = test system: ACHN renal
786-0 renal = test system: 786-0 renal
RPMI-8226 leukemia = test system: RPMI-8226 leukemia
OVCAR-5 ovarian = test system: OVCAR-5 ovarian
HOP-92 NSCLC = test system: HOP-92 NSCLC
SK-MEL-5 melanoma = test system: SK-MEL-5 melanoma
M14 melanoma = test system: M14 melanoma
TK-10 renal = test system: TK-10 renal
SW-620 colon = test system: SW-620 colon
OVCAR-4 ovarian = test system: OVCAR-4 ovarian
LOX IMVI melanoma = test system: LOX IMVI melanoma
UACC-257 melanoma = test system: UACC-257 melanoma

With `CCOC(=O)C(C(=O)OCC)=C1SC(=Nc2ccccc2)C(=Nc2ccccc2)N1c1ccccc1` the TGI (UACC-62 melanoma) was > 100 µM, the TGI (MDA-N) was > 100 µM and the TGI (SK-MEL-2 melanoma) was > 100 µM. For the same molecule, the TGI (UO-31 renal) was > 100 µM, the TGI (NCI-H522 lung) was > 100 µM and the TGI (PC-3 prostate) was > 100 µM. For the same molecule, the TGI (OVCAR-8 ovarian) was > 100 µM, the TGI (NCI-H460 lung) was > 100 µM and the TGI (MDA-MB-231 breast) was > 100 µM. For the same molecule, the TGI (HT29 colon) was > 100 µM, the TGI (HOP-62 NSCLC) was > 100 µM and the TGI (A549 NSCLC) was > 100 µM. The TGI (HCC-2998 colon) was > 100 µM, the TGI (SNB-75 CNS) was > 100 µM and the TGI (KM12 colon) was > 100 µM. For the same molecule, the TGI (CCRF-CEM leukemia) was > 100 µM, the TGI (IGROV1 ovarian) was > 100 µM and the TGI (SF-539 CNS) was > 100 µM. For the same molecule, the TGI (HCT-15 colon) was > 100 µM, the TGI (COLO 205 colon) was > 100 µM and the TGI (SK-OV-3 ovarian) was > 100 µM. For the same molecule, the TGI (MCF7 breast) was > 100 µM, the TGI (HCT-116 colon) was > 100 µM and the TGI (SR leukemia) was > 100 µM. The TGI (NCI/ADR-RES ovarian) was > 100 µM, the TGI (EKVX NSCLC) was > 100 µM and the TGI (SF-268 CNS) was > 100 µM. The TGI (MALME-3M melanoma) was > 100 µM, the TGI (K-562 leukemia) was > 100 µM and the TGI (T-47D breast) was > 100 µM. For the same molecule, the TGI (CAKI-1 renal) was > 100 µM, the TGI (SF-295 CNS) was > 100 µM and the TGI (SK-MEL-28 melanoma) was > 100 µM. For the same molecule, the TGI (SNB-19 CNS) was > 100 µM, the TGI (SN12C renal) was > 100 µM and the TGI (NCI-H226 lung) was > 100 µM. For the same molecule, the TGI (HS 578T breast) was > 100 µM, the TGI (RXF 393 renal) was > 100 µM and the TGI (BT-549 breast) was > 100 µM. The TGI (A498 renal) was > 100 µM, the TGI (NCI-H23 lung) was > 100 µM and the TGI (DU-145 prostate) was > 100 µM. The TGI (U251 CNS) was > 100 µM, the TGI (MOLT-4 leukemia) was > 100 µM and the TGI (OVCAR-3 ovarian) was > 100 µM. The TGI (HL-60(TB) leukemia) was > 100 µM, the TGI (MDA-MB-435) was > 100 µM and the TGI (ACHN renal) was > 100 µM. For the same molecule, the TGI (786-0 renal) was > 100 µM, the TGI (RPMI-8226 leukemia) was > 100 µM and the TGI (OVCAR-5 ovarian) was > 100 µM. For the same molecule, the TGI (HOP-92 NSCLC) was > 100 µM and the TGI (SK-MEL-5 melanoma) was > 100 µM.
`Oc1c(Br)cc(/C=C/c2ccnc(/C=C/c3cc(Br)c(O)c(Br)c3)c2)cc1Br` showed a TGI (UACC-62 melanoma) of 73.8 µM, a TGI (MDA-N) of 91.3 µM and a TGI (SK-MEL-2 melanoma) of 34.4 µM. The TGI (UO-31 renal) was 35.4 µM, the TGI (PC-3 prostate) was 39 µM and the TGI (OVCAR-8 ovarian) was 83.9 µM. For the same molecule, the TGI (M14 melanoma) was 54.9 µM, the TGI (NCI-H460 lung) was > 100 µM and the TGI (TK-10 renal) was 75 µM. The TGI (MDA-MB-231 breast) was 59.4 µM, the TGI (HT29 colon) was 40.2 µM and the TGI (SW-620 colon) was > 100 µM. The TGI (HOP-62 NSCLC) was > 100 µM, the TGI (A549 NSCLC) was 77 µM and the TGI (HCC-2998 colon) was > 100 µM. For the same molecule, the TGI (OVCAR-4 ovarian) was 87.2 µM, the TGI (SNB-75 CNS) was 58.5 µM and the TGI (KM12 colon) was 38.7 µM. For the same molecule, the TGI (CCRF-CEM leukemia) was > 100 µM, the TGI (IGROV1 ovarian) was > 100 µM and the TGI (SF-539 CNS) was 33 µM. For the same molecule, the TGI (HCT-15 colon) was 73 µM, the TGI (COLO 205 colon) was 59.9 µM and the TGI (SK-OV-3 ovarian) was > 100 µM. The TGI (LOX IMVI melanoma) was > 100 µM, the TGI (MCF7 breast) was 60.3 µM and the TGI (HCT-116 colon) was 30.7 µM. For the same molecule, the TGI (SR leukemia) was 45.9 µM, the TGI (NCI/ADR-RES ovarian) was 92.6 µM and the TGI (EKVX NSCLC) was 56.4 µM. For the same molecule, the TGI (SF-268 CNS) was > 100 µM, the TGI (K-562 leukemia) was 60.1 µM and the TGI (T-47D breast) was 52.1 µM. The TGI (CAKI-1 renal) was > 100 µM, the TGI (SF-295 CNS) was > 100 µM and the TGI (SK-MEL-28 melanoma) was > 100 µM. For the same molecule, the TGI (SNB-19 CNS) was > 100 µM, the TGI (SN12C renal) was > 100 µM and the TGI (UACC-257 melanoma) was 66.7 µM. The TGI (HS 578T breast) was > 100 µM, the TGI (BT-549 breast) was > 100 µM and the TGI (A498 renal) was 54.4 µM. The TGI (DU-145 prostate) was 39.1 µM, the TGI (U251 CNS) was 30.8 µM and the TGI (MOLT-4 leukemia) was 45.8 µM. It also gave a TGI (OVCAR-3 ovarian) of 53.1 µM, a TGI (HL-60(TB) leukemia) of 60.6 µM and a TGI (MDA-MB-435) of 63 µM. For the same molecule, the TGI (ACHN renal) was > 100 µM, the TGI (786-0 renal) was 35.3 µM and the TGI (RPMI-8226 leukemia) was 51.6 µM. The TGI (OVCAR-5 ovarian) was 55.3 µM, the TGI (HOP-92 NSCLC) was > 100 µM and the TGI (SK-MEL-5 melanoma) was 41 µM.
